Measurements reported in PubChem BioAssay AID742 (SRMLSC, 2007).
Calls of active or inactive are those of the source. How the calls were made is not given here.

Legend:
[1] = Her2 expression suppression with viability readout – cell-based, AlphaScreen, CellTiter-Glo viability, dose response (AID 742); conditions: human cells, Her2 expression AlphaScreen; CTG viability; at 9.62 µM (top of the series)
[2] = system: human cells, Her2 expression AlphaScreen; CTG viability; assay: as above; conditions: viability, CellTiter-Glo

SMILES	Her2 inhibition [1]	EC50 [2]
CC1(C)CC(=O)C2(CC3=C(CC(C)(C)CC3=O)O2)C(=O)C1	-2.95% (inactive)	> 9.62 µM
CC1CN(c2oc(COc3ccc(Cl)cc3Cl)nc2C#N)CC(C)O1 (stereo unspecified)	-17.3% (inactive)	> 9.62 µM
C[C@H]1CCC[C@H](O)CCCCCc2cc(O)cc(O)c2C(=O)O1	3.17% (inactive)	> 9.62 µM
Cc1nc2cc(S(=O)(=O)C(F)(F)F)ccc2s1	-23.9% (inactive)	> 9.62 µM
CCOC(=O)C(NC(C)=O)(N1CCc2ccccc2C1)C(F)(F)F (stereo unspecified)	-13.1% (inactive)	> 9.62 µM
O=C1CC(Sc2nnc(-c3ccccc3O)o2)C(=O)N1c1ccccc1 (stereo unspecified)	-8.42% (inactive)	> 9.62 µM
Cn1cnc2c1c(=O)[nH]c(=O)n2C	-20.9% (inactive)	> 9.62 µM
O=C(c1n[nH]c(=O)c2ccccc12)N1CCN(c2ccccc2)CC1	-18.2% (inactive)	> 9.62 µM
CC1(C)CCCC2=C1CC1C(=O)N(Cc3cccnc3)C(=O)C1C2 (stereo unspecified)	-13.3% (inactive)	> 9.62 µM
Nc1nc(-c2cccs2)c(NC(=O)c2ccccc2)s1	-8.18% (inactive)	> 9.62 µM
O=S(=O)(CCSc1ccccn1)c1nc2ccccc2s1	12.7% (inactive)	> 9.62 µM
C=CCn1c(SCc2nc3ccccc3c(=O)[nH]2)nnc1-c1cc2cc(Cl)ccc2o1	5.79% (inactive)	> 9.62 µM
Cc1c(C#N)c(N)c(C(=O)c2ccccc2)n1Cc1ccccc1	-0.29% (inactive)	> 9.62 µM
Cc1cc(C)n(-c2c(F)c(F)c(CN3CCOCC3)c(F)c2F)n1	-10.7% (inactive)	> 9.62 µM
CCN(CCNC(=O)C1CCN(Cc2nc(-c3cccc(Cl)c3)oc2C)CC1)c1ccccc1	-54.8% (inactive)	> 9.62 µM
CCCn1c(Nc2nc3ccccc3n2C)nc2ccccc21	-10.1% (inactive)	> 9.62 µM
Cc1cc(NC(=O)CCCS(=O)(=O)c2nc(-c3cccs3)cc(C(F)(F)F)n2)no1	18.9% (inactive)	> 9.62 µM
CC(C)C(=O)N(Cc1cc2ccccc2[nH]c1=O)C(C)(C)C	-2.53% (inactive)	> 9.62 µM
CCOc1ccc(CNc2ccc3c(c2)ncn3C)cc1	8.61% (inactive)	> 9.62 µM
CCn1c2ccccc2c2cc(C3C(C#N)=C(N)Oc4n[nH]c(COC)c43)ccc21 (stereo unspecified)	29.6% (inactive)	> 9.62 µM
CCOC(=O)c1c(NC(=O)CSc2n[nH]c(N)n2)sc(CC)c1C	-10.4% (inactive)	> 9.62 µM
O=S(=O)(Nc1ccc2c(c1)CCC2)c1cccs1	10.2% (inactive)	> 9.62 µM
CCN(CC)c1ccc(-c2nn3c(-c4n[nH]c5c4CCC5)nnc3s2)cc1	-1.69% (inactive)	> 9.62 µM
COCCCN1C(=O)C(O)=C(C(C)=O)C1c1cccc(F)c1 (stereo unspecified)	-2.16% (inactive)	> 9.62 µM
CCN(CC(=O)NC1CCCCCC1)S(=O)(=O)c1ccccc1	-2.97% (inactive)	> 9.62 µM
COc1cccc(N2CCN(c3ncnc4c3[nH]c3ccc(F)cc34)CC2C)c1 (stereo unspecified)	-42.1% (inactive)	< 0.024 µM

SMILES	Her2 inhibition [1]	EC50 [2]
CC12CCCCC1(O)[N+](=O)C1=C(CCCC1)N2[O-] (stereo unspecified)	-13.5% (inactive)	> 9.62 µM
CC(=NCC1CCCO1)c1c(O)n(-c2ccccc2)c(=O)[nH]c1=O (stereo unspecified)	-6.53% (inactive)	> 9.62 µM
CCOC(=O)c1c(-c2cccs2)csc1NC(=O)c1ccco1	17.4% (inactive)	> 9.62 µM
CC(=O)C(Sc1ncnc2c1nnn2-c1ccc(F)cc1)C(=O)N(C)C (stereo unspecified)	-16.5% (inactive)	> 9.62 µM
CCOc1ccc(NC(=O)C/C(N)=N/O)cc1	-1.78% (inactive)	> 9.62 µM
Cn1c(SC2=CS(=O)(=O)c3ccccc32)nc2ccccc21	44.8% (inactive)	> 9.62 µM
COc1ccc(-c2nnc(SC(=O)N3c4ccccc4Sc4ccccc43)o2)cc1	-24.1% (inactive)	> 9.62 µM
CCC(=O)OC1(C#CCOc2ccc(OC)cc2)CCN(C)CC1	-12.2% (inactive)	> 9.62 µM
CCCc1cc(C(=O)Cc2ccc(F)cc2)c(O)cc1O	-30.2% (inactive)	> 9.62 µM
CCSC1(SCC)N=C(N)C2(C#N)C(c3ccc(OC)c(OC)c3OC)C12C#N (stereo unspecified)	6.24% (inactive)	> 9.62 µM
Oc1cccc2ccc(Nc3ccccn3)nc12	31.3% (inactive)	> 9.62 µM
CC(=O)Nc1cccc(NC(=O)c2c(-c3ccccc3Cl)noc2C)c1	-14.7% (inactive)	> 9.62 µM
C/C(=N\O)C(=O)C(CN1CCCCC1)CN1CCCCC1	15.2% (inactive)	> 9.62 µM
N#C/C(C(N)=O)=c1/ccc2c(c1)N1C3=C(CCCC3)CC3CCCCC31N=2 (stereo unspecified)	4.75% (inactive)	> 9.62 µM
O=S(=O)(c1ccc(F)cc1)N(CCO)CC(O)Cn1c2ccccc2c2ccccc21 (stereo unspecified)	-33.6% (inactive)	> 9.62 µM
O=C(Nc1nccs1)C1C2/C=C\CCCCC21 (stereo unspecified)	-0.67% (inactive)	> 9.62 µM
CCOC(=O)CC(N)c1ccc2c(c1)OCO2 (stereo unspecified)	-8.02% (inactive)	> 9.62 µM
CC(C)n1c(SCc2ccc(Cl)cc2)nc2c1c(=O)[nH]c(=O)n2C	-14.2% (inactive)	> 9.62 µM
N=C(N)c1c(O)n(C2CCCCC2)c(=O)n(C2CCCCC2)c1=O	-21.5% (inactive)	> 9.62 µM
COc1ccccc1-c1cc(C(F)(F)F)nc(S(=O)(=O)CCCC(=O)NC(C)C)n1	5% (inactive)	> 9.62 µM
CC(C)(C)c1cc(C(c2cccnc2)N2CCN(CCO)CC2)cc(C(C)(C)C)c1O (stereo unspecified)	7.24% (inactive)	> 9.62 µM
CS(=O)(=O)c1ccc(Cl)c(NC(=O)COC(=O)CNC(=O)c2ccc(Br)o2)c1	5.14% (inactive)	> 9.62 µM
Cn1c(Cl)cnc1C1CC(=O)c2cc(Cl)ccc2O1 (stereo unspecified)	15.6% (inactive)	> 9.62 µM
COc1ccc(CCN2CCC(Nc3nc4ccccc4n3Cc3ccc(F)cc3)CC2)cc1	-28.9% (inactive)	> 9.62 µM
CCOC(=O)N1CCN(c2nnnn2-c2ccccc2)CC1	-3.51% (inactive)	> 9.62 µM
O=S(=O)(CCN1CCN(C(c2ccccc2)c2ccccc2)CC1)C(F)(F)F	-1.03% (inactive)	> 9.62 µM

SMILES	Her2 inhibition [1]	EC50 [2]
COC(=O)Nc1ccc(S(=O)(=O)N(CCO)CC(F)(F)C(F)F)cc1	-11.6% (inactive)	> 9.62 µM
CN1CCN(CCCN2c3ccccc3Sc3ccc(Cl)cc32)CC1	-5.38% (inactive)	> 9.62 µM
CSCC[C@H](NC(=O)NCc1ccc(F)cc1)C(=O)O	-11.5% (inactive)	> 9.62 µM
CCC(C)NC(=O)c1cnn2c1NC(c1ccc3c(c1)OCO3)CC2C(F)(F)F (stereo unspecified)	-0.33% (inactive)	> 9.62 µM
CS(=O)c1nc(-c2ccc(Br)cc2)cc(-c2ccccc2)c1C#N (stereo unspecified)	34% (inactive)	> 9.62 µM
CN1CCCN(C(c2ccccc2)c2ccc(Cl)cc2)CC1 (stereo unspecified)	-8.42% (inactive)	> 9.62 µM
CS(=O)(=O)c1ncc(Cl)c(C(=O)Nc2ccc(N3CCOCC3)cc2)n1	19.8% (inactive)	> 9.62 µM
CCOC(=O)C(C(=O)OCC)c1cc(Br)c2noc3c2c1C(=O)c1ccccc1-3	18.8% (inactive)	> 9.62 µM
O=C1CC(Sc2nnnn2C2CCCCC2)C(=O)N1c1ccccc1 (stereo unspecified)	-12.8% (inactive)	> 9.62 µM
CCCCC(CC)Cn1c2nc3ccccc3nc2c2c(=N)oc(C)nc21 (stereo unspecified)	-5.07% (inactive)	> 9.62 µM
CCNC(=O)c1nc[nH]c1C(=O)NCC	2.98% (inactive)	> 9.62 µM
c1ccc(Cc2nn3c(COc4ccccc4)nnc3s2)cc1	-17.6% (inactive)	> 9.62 µM
CCCCCCOC(=O)C(C#N)c1nc2ccccc2nc1N1CCN(C)CC1 (stereo unspecified)	-32.5% (inactive)	> 9.62 µM
O=S(=O)(c1ccc2c(c1)C(=NO)c1cc(S(=O)(=O)N3CCCCC3)ccc1-2)N1CCCCC1	27.4% (inactive)	< 0.024 µM
CCOC(=O)Cc1csc(NC(=O)COc2ccc(OC)cc2)n1	-22.7% (inactive)	> 9.62 µM
CCCCn1c(O)c(C(C)=NCCN2CCCCC2)c(=O)[nH]c1=O	-17.4% (inactive)	> 9.62 µM
CC(C)(C)OC(=O)NCCc1nnc(S(=O)(=O)Cc2ccc(Cl)cc2Cl)o1	-15.5% (inactive)	> 9.62 µM
COC(=O)CS(=O)(=O)c1nnc([C@H](Cc2ccccc2)NC(=O)OC(C)(C)C)o1	-2.38% (inactive)	> 9.62 µM
Cn1nc(C(=O)Nc2c(-c3ccccc3)nc3sccn23)c2ccccc2c1=O	-13.2% (inactive)	> 9.62 µM
Cc1cc2nnc(SC(C)C#N)n2c2ccccc12 (stereo unspecified)	-10.1% (inactive)	> 9.62 µM
O=C(Nc1ccccc1NC(=O)NC1CCCCC1)NC1CCCCC1	-1.72% (inactive)	> 9.62 µM
COc1ccccc1-n1nnnc1S(=O)(=O)Cc1ccc(Cl)cc1	23.5% (inactive)	> 9.62 µM
Cc1ccc(C(c2sc3nc(C)nn3c2O)N2CCN(c3ccccc3F)CC2)cc1 (stereo unspecified)	-4.31% (inactive)	> 9.62 µM
O=C(CCn1[nH]c(=O)c2ccccc2c1=O)OC1CCCCC1	-7.62% (inactive)	> 9.62 µM
CCN(CC)c1ccc2c(Cl)c(Br)c(=O)oc2c1	3.42% (inactive)	> 9.62 µM
COCc1cc(C)nc(Nc2ccc(C)c(C)c2)c1C#N	20.5% (inactive)	> 9.62 µM
